Test results published in PubChem BioAssay AID248 (DTP/NCI, 2004).
“And” between values parts separate entries of the source, which are not always exact repeats. Equal values may be shown once. Toxic doses and inconclusive results are not listed. Cut-off read from the data, not from the text of the source: active = T/C of 150% or more; inactive = T/C below 125%. Square brackets hold non-standard residues; d marks the D form. Peptide text beside a SMILES is read from it. * marks the point of attachment. ξ: configuration not given here. ξV = CC(C)C(N)C(=O)O; ClAc = O=C(CCl)*

Test system: L1210 leukemia ip in BDF1 mice, survival T/C
Assay: NCI In Vivo Anticancer Drug Screen. Data for tumor model L1210 Leukemia (intraperitoneal) in B6D2F1 (BDF1) mice
Details: endpoint: mean survival time, higher = longer survival
Method in brief: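 In this screen, tumor-bearing mice given compound are compared to those given vehicle, and their survival values are reported as a treated-to-control quotient.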

[1] = dose: 100.0 mg/kg/injection, schedule: Q04DX003 (ip), vehicle: acetone
[2] = dose: 200.0 mg/kg/injection, schedule: Q04DX003 (ip), vehicle: acetone
[3] = dose: 100.0 mg/kg/injection, schedule: Q04DX003 (ip), vehicle: saline with Tween-80
[4] = dose: 200.0 mg/kg/injection, schedule: Q04DX003 (ip), vehicle: saline with Tween-80
[5] = dose: 400.0 mg/kg/injection, schedule: Q04DX003 (ip), vehicle: saline with Tween-80
[6] = dose: 100.0 mg/kg/injection, schedule: Q01DX001 (ip), vehicle: saline
[7] = dose: 200.0 mg/kg/injection, schedule: Q01DX001 (ip), vehicle: saline
[8] = dose: 400.0 mg/kg/injection, schedule: Q01DX001 (ip), vehicle: saline
[9] = dose: 75.0 mg/kg/injection, schedule: Q01DX001 (ip), vehicle: saline
[10] = dose: 100.0 mg/kg/injection, schedule: Q01DX001 (ip), vehicle: Klucel (hydroxypropylcellulose) (HPC)
[11] = dose: 100.0 mg/kg/injection, schedule: Q04DX003 (ip), vehicle: Klucel (hydroxypropylcellulose) (HPC)
[12] = dose: 200.0 mg/kg/injection, schedule: Q04DX003 (ip), vehicle: Klucel (hydroxypropylcellulose) (HPC)
[13] = dose: 400.0 mg/kg/injection, schedule: Q04DX003 (ip), vehicle: Klucel (hydroxypropylcellulose) (HPC)
[14] = dose: 100.0 mg/kg/injection, schedule: Q01DX009 (ip), vehicle: saline
[15] = dose: 200.0 mg/kg/injection, schedule: Q01DX009 (ip), vehicle: saline
[16] = dose: 400.0 mg/kg/injection, schedule: Q01DX009 (ip), vehicle: saline
[17] = dose: 100.0 mg/kg/injection, schedule: Q01DX009 (ip), vehicle: Klucel (hydroxypropylcellulose) (HPC)
[18] = dose: 200.0 mg/kg/injection, schedule: Q01DX009 (ip), vehicle: Klucel (hydroxypropylcellulose) (HPC)
[19] = dose: 400.0 mg/kg/injection, schedule: Q01DX009 (ip), vehicle: Klucel (hydroxypropylcellulose) (HPC)
[20] = dose: 200.0 mg/kg/injection, schedule: Q01DX001 (ip), vehicle: Klucel (hydroxypropylcellulose) (HPC)
[21] = dose: 50.0 mg/kg/injection, schedule: Q01DX009 (ip), vehicle: Klucel (hydroxypropylcellulose) (HPC)

Measured: T/C

Cc1c(C(=O)O)nnn1/C=C/c1ccccc1
inactive: [1] 103 % of control | [2] 87 % of control

Cc1ccc(S(=O)(=O)N2CC(O)CC2C(=O)O)cc1 (stereo unspecified)
inactive: dose: 100.0 mg/kg/injection, schedule: Q01DX009 (ip), vehicle: saline with Tween-80 96 % of control | [3] 93 % of control and 100 % of control | dose: 200.0 mg/kg/injection, schedule: Q01DX009 (ip), vehicle: saline with Tween-80 101 % of control | [4] 95 % of control and 103 % of control | dose: 400.0 mg/kg/injection, schedule: Q01DX009 (ip), vehicle: saline with Tween-80 101 % of control | [5] 93 % of control and 96 % of control

CCOC(=O)n1cnc2nc(N)nc(SC)c21
inactive: dose: 50.0 mg/kg/injection, schedule: Q01DX001 (ip), vehicle: saline 103 % of control | [6] 97 % of control | [7] 100 % of control | [8] 122 % of control

CC[N+](C)(C)C(C)(C)C
inactive: dose: 18.75 mg/kg/injection, schedule: Q01DX001 (ip), vehicle: saline 112 % of control | dose: 37.5 mg/kg/injection, schedule: Q01DX001 (ip), vehicle: saline 105 % of control | [9] 105 % of control

CC(=O)OCC(OC(C)=O)C(OC(C)=O)C(OC(C)=O)C(OC(C)=O)C(C=O)OC(C)=O (stereo unspecified)
inactive: [3] 92 % of control | [4] 95 % of control | [5] 106 % of control

O=c1cc(NCc2ccccc2)[nH]c(=O)[nH]1
inactive: dose: 50.0 mg/kg/injection, schedule: Q01DX001 (ip), vehicle: Klucel (hydroxypropylcellulose) (HPC) 91 % of control | [10] 97 % of control

COc1ccccc1OCCN1Cc2ccccc2C1
inactive: [3] 96 % of control | [4] 92 % of control

CC(NC(=O)C(CO)NC(=O)c1cnc2ccccc2n1)C(=O)OC(C)(C)C (stereo unspecified)
inactive: [6] 102 % of control | [7] 102 % of control | [8] 115 % of control

CC(=O)N(c1ccccc1OS(C)(=O)=O)S(C)(=O)=O
inactive: [11] 109 % of control | [12] 100 % of control | [13] 104 % of control

CC(C)(C)OC(=O)NOc1ccc([N+](=O)[O-])cc1[N+](=O)[O-]
inactive: dose: 2.0 mg/kg/injection, schedule: Q01DX009 (ip), vehicle: saline with Tween-80 95 % of control | dose: 4.0 mg/kg/injection, schedule: Q01DX009 (ip), vehicle: saline with Tween-80 106 % of control | dose: 8.0 mg/kg/injection, schedule: Q01DX009 (ip), vehicle: saline with Tween-80 107 % of control | dose: 16.0 mg/kg/injection, schedule: Q01DX009 (ip), vehicle: saline with Tween-80 101 % of control | dose: 25.0 mg/kg/injection, schedule: Q04DX003 (ip), vehicle: saline with Tween-80 105 % of control | dose: 50.0 mg/kg/injection, schedule: Q04DX003 (ip), vehicle: saline with Tween-80 92 % of control | dose: 75.0 mg/kg/injection, schedule: Q01DX001 (ip), vehicle: carboxymethylcellulose (CMC) 96 % of control | [3] 88 % of control

COC(=O)C[N+]1(C)C2CCC1CC(Cl)C2 (stereo unspecified)
inactive: [6] 101 % of control

CC1COC(C(F)(F)Cl)(C(F)(F)Cl)O1 (stereo unspecified)
inactive: [14] 93 % of control and 97 % of control | dose: 100.0 mg/kg/injection, schedule: Q04DX002 (ip), vehicle: saline 96 % of control and 101 % of control | [15] 94 % of control and 92 % of control | dose: 200.0 mg/kg/injection, schedule: Q04DX002 (ip), vehicle: saline 96 % of control and 103 % of control | [16] 93 % of control and 105 % of control | dose: 400.0 mg/kg/injection, schedule: Q04DX002 (ip), vehicle: saline 100 % of control and 105 % of control

CCC(=O)Oc1ccc(OCc2ccccc2)cc1
inactive: [17] 95 % of control | [11] 95 % of control | [18] 97 % of control | [12] 98 % of control | [19] 98 % of control | [13] 95 % of control

O=C(O)c1cc(N=Nc2ncn[nH]2)ccc1O
inactive: dose: 87.5 mg/kg/injection, schedule: Q04DX003 (ip), vehicle: Klucel (hydroxypropylcellulose) (HPC) 96 % of control | dose: 175.0 mg/kg/injection, schedule: Q04DX003 (ip), vehicle: Klucel (hydroxypropylcellulose) (HPC) 97 % of control | dose: 350.0 mg/kg/injection, schedule: Q04DX003 (ip), vehicle: Klucel (hydroxypropylcellulose) (HPC) 100 % of control

C/C(CCCCCCCCC#N)=N/NC(N)=O
inactive: [10] 103 % of control | [20] 106 % of control | dose: 400.0 mg/kg/injection, schedule: Q01DX001 (ip), vehicle: Klucel (hydroxypropylcellulose) (HPC) 105 % of control

[CH3][Ge]([CH3])([CH3])[CH2]CCl
inactive: dose: 100.0 mg/kg/injection, schedule: Q04DX002 (ip), vehicle: saline with Tween-80 98 % of control | dose: 200.0 mg/kg/injection, schedule: Q04DX002 (ip), vehicle: saline with Tween-80 91 % of control | dose: 400.0 mg/kg/injection, schedule: Q04DX002 (ip), vehicle: saline with Tween-80 98 % of control

CC(C)C(NC(=O)CNC(=O)CCl)C(=O)O (stereo unspecified) (ClAc-Gly-[ξV]-OH)
inactive: [3] 101 % of control | [4] 101 % of control

OCCC1CNCCN1.[Cl][Pd]([Cl])([Cl])[Cl] (stereo unspecified)
inactive: dose: 100.0 mg/kg/injection, schedule: Q01DX001 (ip), vehicle: DMSO 98 % of control | dose: 200.0 mg/kg/injection, schedule: Q01DX001 (ip), vehicle: DMSO 91 % of control

Cc1ccc(NC(=O)OC(C)C)c(C)c1
inactive: [17] 100 % of control | [18] 100 % of control | [19] 96 % of control

O=C(/C=C(\Cl)c1ccc2c(c1)OCO2)OC/C=C\c1ccc2c(c1)OCO2
inactive: [21] 94 % of control | [10] 93 % of control | [17] 92 % of control | [20] 88 % of control | [18] 92 % of control

O=C(O)c1cnc[nH]1
inactive: [17] 100 % of control | [18] 92 % of control | [19] 94 % of control

C1CNC(CN2CCCC2)C1 (stereo unspecified)
inactive: [9] 93 % of control | dose: 150.0 mg/kg/injection, schedule: Q01DX001 (ip), vehicle: saline 101 % of control | dose: 300.0 mg/kg/injection, schedule: Q01DX001 (ip), vehicle: saline 103 % of control

S=C(NCc1ccc(Cl)c(Cl)c1)NCc1ccc(Cl)c(Cl)c1
inactive: dose: 25.0 mg/kg/injection, schedule: Q01DX009 (ip), vehicle: Klucel (hydroxypropylcellulose) (HPC) 103 % of control | [21] 101 % of control

C#CCOCCC(C(=O)OCC)C(=O)OCC
inactive: [14] 96 % of control | [15] 91 % of control | [16] 102 % of control

O=C(O)Cc1nc2ccccc2n1CC(=O)O
inactive: dose: 100.0 mg/kg/injection, schedule: Q04DX002 (ip), vehicle: Klucel (hydroxypropylcellulose) (HPC) 96 % of control | dose: 200.0 mg/kg/injection, schedule: Q04DX002 (ip), vehicle: Klucel (hydroxypropylcellulose) (HPC) 93 % of control | dose: 400.0 mg/kg/injection, schedule: Q04DX002 (ip), vehicle: Klucel (hydroxypropylcellulose) (HPC) 100 % of control

CCOC(=O)C(C)C1(O)CCCCC1 (stereo unspecified)
inactive: [14] 98 % of control | [15] 95 % of control | [16] 98 % of control

NC(=O)N/N=C\c1ccc(O)cn1
inactive: [1] 98 % of control | [2] 93 % of control | dose: 400.0 mg/kg/injection, schedule: Q04DX003 (ip), vehicle: acetone 96 % of control

CC1(C)C/C(=C\c2cccc(Br)c2)C(=O)c2ccccc21
inactive: [17] 104 % of control | [11] 98 % of control | [18] 98 % of control | [12] 106 % of control | [19] 103 % of control | [13] 101 % of control
